This note sets out measurements from patent US11834401B2, “Treating and preventing diseases by modulating cell mechanics” (THE JOHNS HOPKINS UNIVERSITY, priority 2013, dated 2023).

Common to all, as to type: cell-based, human
Experiment [1] relates to Panc10.05 cells. Description: Micropipette aspiration effective cortical tension (Teff), knockdown lines. The method, then: The instrumental and experimental setups have been described previously. MPA assays and RT-DC measurements were all carried out in growth media for cortical tension measurements or Leibovitz L-15 media (Gibco) when fluorescence was quantified.
Pressure was applied to the cell cortex with a micropipette (6- to 8-μm radius; Rp) to the equilibrium pressure (ΔP), where the length of the cell inside the pipette (Lp) was equal to Rp. The effective cortical tension (Teff) was calculated by applying the Young-Laplace equation: ΔP=2Teff (1/Rp−1/Rc), where Rc is the radius of the cell and ΔP is the equilibrium pressure when Lp=Rp. Images were collected with an Olympus IX81 microscope equipped with MetaMorph software and analyzed using ImageJ (rsb.info.nih.gov/ij).

Experiment [2] relates to AsPC-1 shCTRL and shIIA cells. Description: Transwell migration of knockdown lines. The method, then:
AsPC-1 cells were plated in 6.5-mm PET membrane transwell inserts with 8-μm pores (Costar #3464) in a 24-well plate at a concentration of 5,000 cells per well. Cells were allowed to adhere overnight in AsPC-1 media. Cell media was then changed to serum-free RPMI 1640 to starve cells for 18 hrs. Following starvation, cells were stimulated by changing media in the top chamber to fresh serum-free RPMI 1640±500 nM 4-HAP and complete AsPC-1 media ±500 nM 4HAP. Cells were then incubated for 24 hrs at 37 degrees C./5% CO2 and then fixed in 4% paraformaldehyde, permeabilized in 0.1% Triton X-100 and stained with 1 μg/ml DAPI. […] A total of five random fields per transwell insert were imaged using a 10× objective (NA) and nuclei were averaged.

In experiment [3] the test system is ASPC-1 cells. Description: Matrigel invasion assay. The settings on record: transwells with 2 mg/ml Matrigel. The method, then: Cells were treated as in migration assay, but plated in transwells containing 2 mg/ml Matrigel (BD Biosciences).
In experiment [4] the test system is ASPC-1 cells. Description: Micropipette aspiration creep test. The settings on record: 500 nM, 1 hr, 0.25 nN/μm^2. The method, then:
(§1) The instrumental and experimental setups have been previously described (Effler J C, et al., 2006; Kee Y-S, et al., 2013). Micropipette aspiration assays were all carried out in growth media with 0.1% DMSO. For cortical tension measurements of Dictyostelium cells, pressure was applied to the cell cortex with a micropipette (2-3 m radius, Rp) to the equilibrium pressure (ΔP) where the length of the cell inside the pipette (Lp) was equal to Rp. The effective cortical tension (Teff) was calculated by applying the Young-Laplace equation: ΔP=2Teff(1/Rp-1/Rc), where Rc is the radius of the cell and ΔP is the equilibrium pressure when Lp=Rp (Derganc J, et al., 2000; Octtaviani E, et al., 2006). For creep tests on mammalian strains, a constant aspiration stress was applied over 60 s. The micropipette radius was 3.5-4.5 m. For quantification, the Lp/Rp ratio values was measured every two seconds and plotted as a function of time. A10.7 and HEK293 cells could only be aspirated at a low pressure range (0.15 nN/μm^2), while HPDE, ASPC-1, and HL-60 cells could be aspirated at higher pressure ranges (0.25 nN/μm^2) because they were stiffer.

Experiment [5] deals with HEK293 cells. Description: Micropipette aspiration creep test. The settings on record: 500 nM, 1 hr, 0.15 nN/μm^2. As for the experimental part: as §1

With `CC(=O)c1ccc(O)cc1` [4-HAP, 4-hydroxyacetophenone], the effective cortical tension entry in experiment [1] (myosin IIA knockdown cells) is on record as “increases the cortical tension in myosin IIA knockdown cells”; in experiment [1] (myosin IIC knockdown cells) it was “unchanged by 4-HAP challenge”; in experiment [1] (sh-control cells, 500-nM) it was “increases the cortical tension of sh-control cells”. The transwell migration entry in experiment [2] was “moderate dose-dependence reduction of transwell migration”. Besides, the in vitro invasion result in experiment [3] was “dose-dependent decrease”. The “deformability in creep test” value is reported as “stiffens ASPC-1 cells, shifting them towards HPDE-like mechanics” in experiment [4] and “stiffens the soft HEK293 cells” in experiment [5].
